Data on 58 compounds can be found in patent publication US20230293599A1, “BACTERIAL COMPOSITIONS WITH ANTI-INFLAMMATORY ACTIVITY” (Universiteit Gent, priority 2020, published 2023).

For one experiment, the system named is S. aureus. The format is cell-based, Staphylococcus aureus.
Settings: not given
The method, then: Using Phenotype Microarray (PM) panels (Biolog), the influence of 190 carbon sources on the growth of the potential probiotic species R. mucilaginosa, R. dentocariosa, R. gilardii, G. haemolysans, and common respiratory pathogens P. aeruginosa, and S. aureus was determined. PM1 and PM2 panels (Biolog) were inoculated according to the manufacturer's instructions. Growth curves were generated for 35 hours by measuring the absorbance at 590 nm using an EnVision (Perkin Elmer) plate reader.
Consider `OC[C@H]1O[C@@H](O[C@@H]2[C@@H](CO)OC(O)(CO)[C@H]2O)[C@H](O)[C@@H](O)[C@H]1O` (mixture of isomers) [Lactulose], for which the “AUC of growth curve, S. aureus” value amounted to 656.2.

Take `CC(O)CO` (stereo not shown) [1,2-Propanediol]: the “AUC of growth curve, S. aureus” value is recorded as 150.0.

`Nc1ncnc2c1ncn2C1CC(O)C(CO)O1` (stereo not shown) [2-Deoxy-Adenosine]: the “AUC of growth curve, S. aureus” value came to 419.1.

In the case of `N#C[C@H](O[C@@H]1O[C@H](CO[C@@H]2O[C@H](CO)[C@@H](O)[C@H](O)[C@H]2O)[C@@H](O)[C@H](O)[C@H]1O)c1ccccc1` [Amygdalin], the “AUC of growth curve, S. aureus” value turned out to be 254.6.

Consider `CCCC(=O)O` [Butyric Acid], for which the “AUC of growth curve, S. aureus” value is reported as 1011.5.

`CCCCCC(=O)O` [Caproic Acid]: the “AUC of growth curve, S. aureus” value was 908.9.

`C/C(=C/C(=O)O)C(=O)O` [Citraconic Acid]: the “AUC of growth curve, S. aureus” value stood at 86.7.

For `OC[C@@H](O)C(O)[C@H](O)CO` [D-Arabitol], the “AUC of growth curve, S. aureus” value turned out to be 832.3.

On to `N[C@@H](C(=O)O)[C@@H](O)[C@H](O)[C@H](O)CO` [D-Glucosaminic Acid], for which the “AUC of growth curve, S. aureus” value stood at 267.3.

As for `O=P(O)(O)O[C@H]1O[C@H](CO)[C@@H](O)[C@H](O)[C@H]1O` [D-Glucose-1-Phosphate], the “AUC of growth curve, S. aureus” value amounted to 189.0.

Take `OC[C@H]1O[C@H](OC[C@H]2O[C@H](O[C@]3(CO)O[C@H](CO)[C@@H](O)[C@@H]3O)[C@H](O)[C@@H](O)[C@@H]2O)[C@H](O)[C@@H](O)[C@H]1O` [D-Rafinose]: the “AUC of growth curve, S. aureus” value turned out to be 282.1.

As to `O=C1O[C@H](CO)[C@@H](O)[C@H]1O` [D-Ribono-1,4-Lactone], the “AUC of growth curve, S. aureus” value came to 100.2.

Regarding `N[C@H](CO)C(=O)O` [D-Serine], the “AUC of growth curve, S. aureus” value is 76.2.

`C[C@H](O)[C@@H](N)C(=O)O` [D-Threonine]: the “AUC of growth curve, S. aureus” value was determined as 87.8.

`O=CO` [Formic Acid]: the “AUC of growth curve, S. aureus” value came out at 474.0.

As for `O=C(O)CO` [Glycolic Acid], the “AUC of growth curve, S. aureus” value came to 344.8.

Turning to `C[C@H](N)C(N)=O` [L-Alaninamide], the “AUC of growth curve, S. aureus” value is 295.4.

Take `OC[C@H](O)C(O)[C@@H](O)CO` [L-Arabitol]: the “AUC of growth curve, S. aureus” value stood at 165.7.

Turning to `O=C[C@@H](O)[C@H](O)[C@@H](O)[C@@H](O)CO` [L-Glucose], the “AUC of growth curve, S. aureus” value was determined as 314.7.

Consider `N[C@@H](CO)C(=O)O` [L-Serine], for which the “AUC of growth curve, S. aureus” value worked out at 558.2.

As to `O=C(O)[C@H](O)[C@@H](O)C(=O)O` [L-Tartaric Acid], the “AUC of growth curve, S. aureus” value is reported as 163.4.

For `C[C@@H](O)[C@H](N)C(=O)O` [L-Threonine], the “AUC of growth curve, S. aureus” value is on record as 754.3.

As for `OC[C@@H](O)[C@@H](O[C@@H]1O[C@H](CO)[C@H](O)[C@H](O)[C@H]1O)[C@H](O)[C@@H](O)CO` [Lactitol], the “AUC of growth curve, S. aureus” value is 338.8.

Turning to `OC[C@@H](O)[C@@H](O[C@H]1O[C@H](CO)[C@@H](O)[C@H](O)[C@H]1O)[C@H](O)[C@@H](O)CO` [Maltitol], the “AUC of growth curve, S. aureus” value amounted to 783.0.

As for `O=C(O)[C@H](O)[C@@H](O)[C@H](O)[C@H](O)CO[C@H]1O[C@H](CO)[C@H](O)[C@H](O)[C@H]1O` [Melibionic Acid], the “AUC of growth curve, S. aureus” value is given as 270.3.

As for `COC(=O)CCC(=O)O` [Mono Methyl Succinate], the “AUC of growth curve, S. aureus” value is 532.1.

With `CC(=O)N[C@H]1C(O)O[C@H](CO)[C@H](O)[C@@H]1O` (stereo partly drawn) [N-Acetyl-D-Galactosamine], the “AUC of growth curve, S. aureus” value was 59.3.

Consider `CC(=O)N[C@@H](CO)[C@@H](O)[C@H](O)[C@H](O)CO` [N-Acetyl-D-Glucosaminitol], for which the “AUC of growth curve, S. aureus” value came out at 381.9.

In the case of `CC(=O)N[C@H]1[C@H]([C@H](O)[C@H](O)CO)OC(O)(C(=O)O)C[C@@H]1O` (stereo partly shown) [N-Acetyl-Neuraminic Acid], the “AUC of growth curve, S. aureus” value was 647.5.

With `O=C(O)C(=O)O` [Oxalic Acid], the “AUC of growth curve, S. aureus” value is on record as 463.7.

Take `O=C(O)CCCCCCCCC(=O)O` [Sebacic Acid]: the “AUC of growth curve, S. aureus” value is 252.2.

For `OC[C@@]12OC[C@@H](O1)[C@@H](O)[C@@H](O)[C@@H]2O` [Sedoheptulosan], the “AUC of growth curve, S. aureus” value is listed as 277.8.

As for `OC[C@H]1O[C@H](OC[C@H]2O[C@H](OC[C@H]3O[C@H](O[C@]4(CO)O[C@H](CO)[C@@H](O)[C@@H]4O)[C@H](O)[C@@H](O)[C@@H]3O)[C@H](O)[C@@H](O)[C@H]2O)[C@H](O)[C@@H](O)[C@H]1O` [Stachyose], the “AUC of growth curve, S. aureus” value amounted to 324.4.

Turning to `Cc1cn([C@H]2C[C@H](O)[C@@H](CO)O2)c(=O)[nH]c1=O` [Thymidine], the “AUC of growth curve, S. aureus” value amounted to 735.9.

Turning to `OC[C@@H](O)[C@H](O)[C@@H](O)CO` [Xylitol], the “AUC of growth curve, S. aureus” value was 280.8.

`O[C@H]1[C@H](O)[C@@H](O)[C@H](O)[C@@H](O)[C@H]1O` [m-inositol]: the “AUC of growth curve, S. aureus” value was 157.9.

As for `OC[C@H]1O[C@@H](O[C@H]2[C@H](O)[C@@H](O)[C@@H](O)O[C@@H]2CO)[C@H](O)[C@@H](O)[C@H]1O` [α-D-Lactose], the “AUC of growth curve, S. aureus” value is listed as 764.6.

For the compound `CCC(O)C(=O)O` (stereo not drawn) [α-Hydroxy-Butyric Acid], the “AUC of growth curve, S. aureus” value is recorded as 567.8.

Regarding `O=C1CCC(C(=O)O)O1` (stereo not drawn) [α-Hydroxy-Glutaric Acid γ-Lactone], the “AUC of growth curve, S. aureus” value is 112.1.

For the compound `CCCC(=O)C(=O)O` [α-Keto-Valeric Acid], the “AUC of growth curve, S. aureus” value is 734.6.

For `CO[C@H]1O[C@H](CO)[C@@H](O)[C@H](O)[C@H]1O` [α-Methyl-D-Glucoside], the “AUC of growth curve, S. aureus” value came to 281.5.

Consider `COC1OC(CO)C(O)C(O)C1O` [α-Methyl-D-Mannoside], for which the “AUC of growth curve, S. aureus” value worked out at 264.2.

Regarding `OC[C@H]1O[C@@H](O)[C@H](O)[C@H](O)[C@@H]1O` [β-D-Allose], the “AUC of growth curve, S. aureus” value is reported as 122.9.

As for `CC(O)CC(=O)O` (stereo not drawn) [β-Hydroxy Butyric Acid], the “AUC of growth curve, S. aureus” value stood at 326.7.

Turning to `CO[C@@H]1O[C@H](CO)[C@@H](O)[C@H](O)[C@H]1O` [β-Methyl-D-Galactoside], the “AUC of growth curve, S. aureus” value turned out to be 358.9.

With `CO[C@@H]1O[C@H](C(=O)O)[C@@H](O)[C@H](O)[C@H]1O` [β-Methyl-D-Glucuronic Acid], the “AUC of growth curve, S. aureus” value was determined as 400.6.

With `COC1OCC(O)C(O)C1O` [β-Methyl-D-Xyloside], the “AUC of growth curve, S. aureus” value is 166.1.

On to `O=C(O)CCCO` [γ-Hydroxy Butyric Acid], for which the “AUC of growth curve, S. aureus” value is listed as 343.7.

Regarding Tween 20, the “AUC of growth curve, S. aureus” value is recorded as 214.4.

Take Tween 80: the “AUC of growth curve, S. aureus” value came to 468.6.

Still in this experiment, the particulars now being: 35 hours, absorbance 590 nm, n = 1; cells without values AUC < 50.
With `CC(=O)O` [Acetic Acid], the “AUC of growth curve, S. aureus” value is recorded as 898.7.

As to `NCCCC[C@H](N)C(=O)O` [L-Lysine], the “AUC of growth curve, S. aureus” value is listed as 331.6.

For Chondroitin Sulfate C, the “AUC of growth curve, S. aureus” value came out at 199.7.

Regarding Gelatin, the “AUC of growth curve, S. aureus” value worked out at 52.4.

Gentiobiose: the “AUC of growth curve, S. aureus” value is reported as 471.4.

Consider Glycogen, for which the “AUC of growth curve, S. aureus” value is on record as 197.7.

Laminarin: the “AUC of growth curve, S. aureus” value was found to be 192.8.

Take Mannan: the “AUC of growth curve, S. aureus” value came to 154.5.
